{
  "source": "patent US20240269139A1",
  "about": "“COMPOUNDS FOR TARGETED PROTEIN DEGRADATION OF KINASES” (DANA-FARBER CANCER INSTITUTE, INC., priority 2020, published 2024)",
  "type_in_all_cases": "cell-based",
  "key": {"[1]": {"biological_target": "protein kinases (human kinome) (Homo sapiens, UniProt Q6P5Z2)", "sequence (Q6P5Z2 whole entry)": "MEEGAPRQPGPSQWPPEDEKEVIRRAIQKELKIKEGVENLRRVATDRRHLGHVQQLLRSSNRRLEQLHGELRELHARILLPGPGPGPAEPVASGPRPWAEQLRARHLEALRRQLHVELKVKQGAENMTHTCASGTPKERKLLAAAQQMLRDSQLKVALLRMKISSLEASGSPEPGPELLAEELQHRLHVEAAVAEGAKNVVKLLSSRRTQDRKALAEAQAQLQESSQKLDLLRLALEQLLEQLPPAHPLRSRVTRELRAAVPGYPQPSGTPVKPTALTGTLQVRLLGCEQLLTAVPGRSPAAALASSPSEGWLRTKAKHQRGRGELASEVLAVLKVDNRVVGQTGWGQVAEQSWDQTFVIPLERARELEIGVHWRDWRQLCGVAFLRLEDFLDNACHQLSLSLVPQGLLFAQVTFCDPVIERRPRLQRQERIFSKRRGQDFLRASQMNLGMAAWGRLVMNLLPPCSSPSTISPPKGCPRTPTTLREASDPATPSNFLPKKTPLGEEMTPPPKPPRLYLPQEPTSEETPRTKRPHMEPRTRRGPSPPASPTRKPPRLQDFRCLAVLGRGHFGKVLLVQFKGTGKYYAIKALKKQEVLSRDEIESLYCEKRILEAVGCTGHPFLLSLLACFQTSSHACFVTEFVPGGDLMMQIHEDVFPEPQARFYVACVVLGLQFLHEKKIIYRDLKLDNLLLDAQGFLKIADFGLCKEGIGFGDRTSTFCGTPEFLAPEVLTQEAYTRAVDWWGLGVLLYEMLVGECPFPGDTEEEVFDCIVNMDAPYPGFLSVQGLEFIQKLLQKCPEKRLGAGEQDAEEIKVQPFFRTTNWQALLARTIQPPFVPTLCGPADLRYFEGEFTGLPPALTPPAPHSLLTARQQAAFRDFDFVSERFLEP"}, "[2]": {"biological_target": "protein kinases (human kinome) (Homo sapiens, UniProt P49841)", "sequence (P49841 whole entry)": "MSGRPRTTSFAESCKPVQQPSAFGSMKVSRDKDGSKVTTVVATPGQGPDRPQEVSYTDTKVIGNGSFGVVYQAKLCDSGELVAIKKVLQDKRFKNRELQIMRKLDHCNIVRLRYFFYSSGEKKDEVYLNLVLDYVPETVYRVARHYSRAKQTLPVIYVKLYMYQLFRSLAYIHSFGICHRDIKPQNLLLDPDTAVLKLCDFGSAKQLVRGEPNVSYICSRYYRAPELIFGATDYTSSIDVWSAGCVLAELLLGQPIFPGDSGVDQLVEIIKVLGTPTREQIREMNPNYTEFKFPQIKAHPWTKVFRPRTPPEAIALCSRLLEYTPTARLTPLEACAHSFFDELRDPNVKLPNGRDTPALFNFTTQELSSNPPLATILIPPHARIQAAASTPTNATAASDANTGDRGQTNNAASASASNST"}, "[3]": {"biological_target": "T1, protein kinases (human kinome) (Homo sapiens, UniProt Q13163)", "T1 sequence (Q13163 1-448)": "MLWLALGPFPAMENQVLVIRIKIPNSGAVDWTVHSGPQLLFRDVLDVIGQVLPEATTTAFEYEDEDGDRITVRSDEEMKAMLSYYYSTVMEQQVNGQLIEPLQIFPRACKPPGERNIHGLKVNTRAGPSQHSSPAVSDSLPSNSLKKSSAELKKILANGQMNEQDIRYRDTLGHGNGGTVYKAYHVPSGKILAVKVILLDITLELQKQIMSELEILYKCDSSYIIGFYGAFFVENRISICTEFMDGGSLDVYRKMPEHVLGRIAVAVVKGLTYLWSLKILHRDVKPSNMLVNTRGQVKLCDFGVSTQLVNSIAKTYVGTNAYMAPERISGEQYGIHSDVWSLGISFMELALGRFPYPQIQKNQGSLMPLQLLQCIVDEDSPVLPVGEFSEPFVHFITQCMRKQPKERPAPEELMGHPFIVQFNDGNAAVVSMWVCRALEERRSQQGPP", "conditions": "experiment wp071"}, "[4]": {"biological_target": "protein kinases (human kinome) (Homo sapiens, UniProt O00764)", "sequence (O00764 whole entry)": "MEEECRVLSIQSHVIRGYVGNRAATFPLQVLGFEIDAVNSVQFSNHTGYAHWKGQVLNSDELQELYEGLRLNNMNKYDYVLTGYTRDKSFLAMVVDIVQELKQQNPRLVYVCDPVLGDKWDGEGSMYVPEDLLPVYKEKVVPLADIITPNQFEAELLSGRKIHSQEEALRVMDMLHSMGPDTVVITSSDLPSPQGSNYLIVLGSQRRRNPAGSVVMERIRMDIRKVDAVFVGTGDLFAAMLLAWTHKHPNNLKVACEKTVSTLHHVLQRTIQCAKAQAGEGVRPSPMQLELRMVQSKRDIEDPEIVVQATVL", "conditions": "protein PDXK (O00764-1); experiment wp117; down"}, "[5]": {"biological_target": "protein kinases (human kinome) (Homo sapiens, UniProt Q8N5S9)", "sequence (Q8N5S9 whole entry)": "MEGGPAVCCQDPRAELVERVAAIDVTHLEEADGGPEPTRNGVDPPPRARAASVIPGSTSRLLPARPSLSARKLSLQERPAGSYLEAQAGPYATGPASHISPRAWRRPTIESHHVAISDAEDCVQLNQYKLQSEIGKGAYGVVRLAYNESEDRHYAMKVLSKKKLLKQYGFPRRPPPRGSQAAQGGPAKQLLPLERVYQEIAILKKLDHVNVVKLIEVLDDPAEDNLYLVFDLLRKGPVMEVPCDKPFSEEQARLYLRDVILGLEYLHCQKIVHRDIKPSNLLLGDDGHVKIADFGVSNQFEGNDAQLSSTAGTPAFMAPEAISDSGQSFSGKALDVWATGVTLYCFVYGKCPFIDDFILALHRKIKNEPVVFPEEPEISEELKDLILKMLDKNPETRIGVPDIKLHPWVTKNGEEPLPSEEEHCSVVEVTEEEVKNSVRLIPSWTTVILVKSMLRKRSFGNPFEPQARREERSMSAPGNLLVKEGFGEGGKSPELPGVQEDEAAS", "conditions": "experiment wp117"}, "[6]": {"biological_target": "T2, protein kinases (human kinome) (Homo sapiens, UniProt O43318)", "T2 sequence (O43318 1-606)": "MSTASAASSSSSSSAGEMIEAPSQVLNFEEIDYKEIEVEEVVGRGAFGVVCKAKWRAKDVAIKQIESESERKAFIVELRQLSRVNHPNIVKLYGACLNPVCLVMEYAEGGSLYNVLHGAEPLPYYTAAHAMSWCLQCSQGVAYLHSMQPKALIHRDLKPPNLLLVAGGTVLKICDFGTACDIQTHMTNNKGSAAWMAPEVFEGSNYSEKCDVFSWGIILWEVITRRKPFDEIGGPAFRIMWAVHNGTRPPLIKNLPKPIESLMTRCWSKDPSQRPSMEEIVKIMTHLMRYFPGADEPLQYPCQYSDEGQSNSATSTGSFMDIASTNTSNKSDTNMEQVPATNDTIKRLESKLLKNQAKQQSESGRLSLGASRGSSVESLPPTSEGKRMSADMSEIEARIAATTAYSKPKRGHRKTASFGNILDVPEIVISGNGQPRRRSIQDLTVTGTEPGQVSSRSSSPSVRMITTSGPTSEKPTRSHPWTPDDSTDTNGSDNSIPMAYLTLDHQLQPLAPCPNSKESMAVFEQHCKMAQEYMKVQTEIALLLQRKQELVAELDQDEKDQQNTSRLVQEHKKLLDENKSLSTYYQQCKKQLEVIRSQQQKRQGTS", "conditions": "MAP3K7 (O43318)"}, "[7]": {"biological_target": "T3, protein kinases (human kinome) (Homo sapiens, UniProt P53778)", "T3 sequence (P53778 1-367)": "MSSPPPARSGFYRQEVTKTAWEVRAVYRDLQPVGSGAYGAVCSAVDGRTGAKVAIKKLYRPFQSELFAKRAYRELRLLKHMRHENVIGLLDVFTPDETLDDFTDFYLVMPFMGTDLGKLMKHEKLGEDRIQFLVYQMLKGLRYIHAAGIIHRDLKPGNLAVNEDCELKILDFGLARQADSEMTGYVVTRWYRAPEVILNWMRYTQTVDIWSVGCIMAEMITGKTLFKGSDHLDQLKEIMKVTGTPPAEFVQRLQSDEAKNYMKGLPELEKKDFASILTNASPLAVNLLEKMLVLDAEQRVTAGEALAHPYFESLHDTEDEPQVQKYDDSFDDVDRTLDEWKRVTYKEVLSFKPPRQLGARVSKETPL", "conditions": "for logFC MAPK12 (P53778): direction of change down; for logFC: MAPK12 (P53778)"}, "[8]": {"biological_target": "protein kinases (human kinome) (Homo sapiens, UniProt Q9H999)", "sequence (Q9H999 whole entry)": "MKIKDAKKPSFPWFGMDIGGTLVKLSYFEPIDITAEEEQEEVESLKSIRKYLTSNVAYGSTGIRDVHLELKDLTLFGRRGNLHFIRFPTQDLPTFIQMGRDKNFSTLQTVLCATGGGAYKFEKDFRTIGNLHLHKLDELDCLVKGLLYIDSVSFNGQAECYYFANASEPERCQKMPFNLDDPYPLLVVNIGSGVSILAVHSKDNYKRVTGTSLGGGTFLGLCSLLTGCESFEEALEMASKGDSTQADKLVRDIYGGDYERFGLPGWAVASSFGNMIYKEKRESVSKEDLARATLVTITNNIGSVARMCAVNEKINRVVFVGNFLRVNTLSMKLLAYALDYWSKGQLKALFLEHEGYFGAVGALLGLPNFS", "conditions": "PANK3 (Q9H999); experiment wp152"}, "[9]": {"biological_target": "protein kinases (human kinome) (Homo sapiens, UniProt A2RU49)", "sequence (A2RU49 whole entry)": "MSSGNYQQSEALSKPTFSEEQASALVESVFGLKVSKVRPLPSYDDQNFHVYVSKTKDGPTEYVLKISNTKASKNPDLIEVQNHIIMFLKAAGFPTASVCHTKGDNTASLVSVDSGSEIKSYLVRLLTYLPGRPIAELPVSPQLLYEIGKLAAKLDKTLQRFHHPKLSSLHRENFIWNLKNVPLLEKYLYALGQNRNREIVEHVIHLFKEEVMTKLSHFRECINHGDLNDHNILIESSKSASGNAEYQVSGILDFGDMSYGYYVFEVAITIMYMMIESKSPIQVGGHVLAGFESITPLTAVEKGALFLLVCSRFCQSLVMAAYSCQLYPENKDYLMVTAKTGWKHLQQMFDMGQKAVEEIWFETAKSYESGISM", "conditions": "protein HYKK (A2RU49); experiment wp117; down"}, "[10]": {"biological_target": "protein kinases (human kinome) (Homo sapiens, UniProt Q96GD4)", "sequence (Q96GD4 whole entry)": "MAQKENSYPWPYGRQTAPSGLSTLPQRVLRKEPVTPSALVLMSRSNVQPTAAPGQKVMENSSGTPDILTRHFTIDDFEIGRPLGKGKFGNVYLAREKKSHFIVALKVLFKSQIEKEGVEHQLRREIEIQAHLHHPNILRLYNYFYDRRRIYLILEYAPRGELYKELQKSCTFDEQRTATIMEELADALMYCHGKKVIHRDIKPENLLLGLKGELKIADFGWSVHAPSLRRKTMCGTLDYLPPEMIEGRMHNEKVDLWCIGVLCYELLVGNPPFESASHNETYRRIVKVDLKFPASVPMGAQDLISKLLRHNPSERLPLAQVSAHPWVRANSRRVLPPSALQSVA", "conditions": "for logFC AURKB: AURKB Q96GD4"}},
  "note": "Where two headings read alike, the source gives them in different places.",
  "data": [
    {"compound": "Cc1ncsc1-c1ccc([C@H](C)NC(=O)[C@@H]2C[C@@H](O)CN2C(=O)[C@@H](NC(=O)CCOCCOCCN2CCN(c3ccc(Nc4ncc(Cl)c(Nc5ccccc5S(=O)(=O)C(C)C)n4)cc3)CC2)C(C)(C)C)cc1", "note": "[FMF.06.098.1]", "values": [
      {"measurement": "logFC PKN3 (Q6P5Z2)", "setting": "[1]; Experiment wp114, direction of change down", "value": "−0.451"},
      {"measurement": "logFC PKN3", "setting": "[1]; protein PKN3 (Q6P5Z2), experiment wp114, down", "value": "−0.451"}
    ]},
    {"compound": "Nc1ncc(-c2ccc(S(=O)(=O)N(CCCNC(=O)CCOCCOCCOCCOCCOCCNc3cccc4c3C(=O)N(C3CCC(=O)NC3=O)C4=O)C3CC3)cc2)cc1-c1ccc2c(c1)CCNC2=O", "note": "(centres unmarked) [WH.10417.099]", "values": [
      {"measurement": "logFC GSK3B", "setting": "[2]; Accession P49841-1, experiment wp172, direction down", "value": "−0.8298"},
      {"measurement": "logFC of GSK3B (P49841-1)", "setting": "[2]; Experiment wp172", "value": "−0.8298"}
    ]},
    {"compound": "Nc1ncnc2c1c(-c1ccc(Oc3ccccc3)cc1)nn2[C@H]1CC[C@H](N2CCN(CCOCCNC(=O)CNc3cccc4c3C(=O)N(C3CCC(=O)NC3=O)C4=O)CC2)CC1", "note": "(some centres unmarked) [SB1.G.181]", "values": [
      {"measurement": "logFC", "setting": "[3]; MAP2K5 (Q13163-1)", "value": "−1.138"},
      {"measurement": "logFC of MAP2K5 (Q13163-1)", "setting": "[3]", "value": "−1.138"}
    ]},
    {"compound": "CS(=O)(=O)Nc1cccc(-c2csc3cnc(Nc4ccc(N5CCN(CCCCCOc6cccc7c6C(=O)N(C6CCC(=O)NC6=O)C7=O)CC5)cc4)nc23)c1", "note": "(centres unmarked) [DB0614, N-(3-(2-((4-(4-(5-((2-(2,6-Dioxopiperidin-3-yl)-1,3-dioxoisoindolin-4-yl)oxy)pentyl)piperazin-1-yl)phenyl)amino)thieno[3,2-d]pyrimidin-7-yl)phenyl)methanesulfonamide]", "values": [
      {"measurement": "logFC PDXK", "setting": "[4]", "value": "−0.3964"},
      {"measurement": "logFC", "setting": "[5]; CAMKK1 (Q8N5S9)", "value": "−0.471"},
      {"measurement": "logFC CAMKK1 (Q8N5S9)", "setting": "[5]; direction of change down", "value": "−0.471"}
    ]},
    {"compound": "Cc1ccc(C(=O)Nc2ccc(CN3CCN(CCCOCCOCCOCCNC(=O)COc4cccc5c4C(=O)N(C4CCC(=O)NC4=O)C5=O)CC3)c(C(F)(F)F)c2)cc1C#Cc1cnc2cccnn12", "note": "(centres unmarked) [SB1.G.187]", "values": [
      {"measurement": "logFC", "setting": "[6]; experiment wp056", "value": "−1.003"},
      {"measurement": "logFC", "setting": "[6]; experiment wp056, direction down", "value": "−1.003"},
      {"measurement": "logFC", "setting": "[6]; experiment wp103", "value": "−1.374"},
      {"measurement": "logFC", "setting": "[6]; experiment wp103, direction down", "value": "−1.374"},
      {"measurement": "logFC", "setting": "[6]; experiment wp105", "value": "−1.031"},
      {"measurement": "logFC", "setting": "[6]; experiment wp105, direction down", "value": "−1.031"},
      {"measurement": "logFC", "setting": "[6]; experiment wp107", "value": "−1.33"},
      {"measurement": "logFC", "setting": "[6]; experiment wp107, direction down", "value": "−1.33"},
      {"measurement": "logFC", "setting": "[6]; experiment wp172", "value": "−0.5772"},
      {"measurement": "logFC", "setting": "[6]; experiment wp172, direction down", "value": "−0.5772"}
    ]},
    {"compound": "Cc1ccc(NC(=O)c2cccc(C(F)(F)F)c2)cc1N1Cc2cnc(Nc3ccc(N4CCN(Cc5cn(CCCCCOc6cccc7c6C(=O)N(C6CCC(=O)NC6=O)C7=O)nn5)CC4)nc3)nc2N(C)C1=O", "note": "(centres unmarked) [DB0646, N-(3-(7-((6-(4-((1-(5-((2-(2,6-Dioxopiperidin-3-yl)-1,3-dioxoisoindolin-4-yl)oxy)pentyl)-1H-1,2,3-triazol-4-yl)methyl)piperazin-1-v)pyridin-3-yl)amino)-1-methyl-2-oxo-1,4-dihydropyrimido[4,5-d]pyrimidin-3(2H)-yl)-4-methylphenyl)-3-(trifluoromethyl)benzamide]", "values": [
      {"measurement": "logFC MAPK12 (P53778)", "setting": "[7]; Experiment wp105", "value": "−0.5939"},
      {"measurement": "logFC", "setting": "[7]; experiment wp105", "value": "−0.5939"},
      {"measurement": "logFC", "setting": "[7]; experiment wp172", "value": "−1.457"},
      {"measurement": "logFC MAPK12 (P53778)", "setting": "[7]; experiment wp172", "value": "−1.457"},
      {"measurement": "logFC", "setting": "[8]", "value": "−0.3534"}
    ]},
    {"compound": "Cc1ncsc1-c1ccc([C@H](C)NC(=O)[C@@H]2C[C@@H](O)CN2C(=O)[C@@H](NC(=O)CCCCCN2CCN(c3ccc(Nc4ncc5scc(-c6cccc(NS(C)(=O)=O)c6)c5n4)cc3)CC2)C(C)(C)C)cc1", "note": "[RSS0680, (2S,4R)-1-((S)-3,3-Dimethyl-2-(6-(4-(4-((7-(3-(methylsulfonamido)phenyl)thieno[3,2-d]pyrimidin-2-yl)amino)phenyl)piperazin-1-yl)hexanamido)butanoyl)-4-hydroxy-N—((S)-1-(4-(4-methylthiazol-5yl)phenyl)ethyl)pyrrolidine-2-carboxamide]", "values": [
      {"measurement": "logFC HYKK", "setting": "[9]", "value": "−0.3476"}
    ]},
    {"compound": "CC(C)S(=O)(=O)c1ccccc1Nc1nc(Nc2ccc(N3CCN(CCOCCNC(=O)CNc4cccc5c4C(=O)N(C4CCC(=O)NC4=O)C5=O)CC3)cc2)ncc1Cl", "note": "(centres unmarked) [SK.3.91]", "values": [
      {"measurement": "logFC AURKB", "setting": "[10]; experiment wp160, 4 hr", "value": "−0.4984"},
      {"measurement": "logFC AURKB", "setting": "[10]; experiment wp172", "value": "−1.11"},
      {"measurement": "logFC of AURKB (Q96GD4)", "setting": "[10]; Experiment wp172", "value": "−1.11"},
      {"measurement": "logFC of AURKB (Q96GD4)", "setting": "[10]; experiment wp160, 4 hr", "value": "−0.4984"}
    ]}
  ]
}
